Results: patent US20240425517A1, “NOVEL COMPOUND FOR DEGRADATION OF TARGET PROTEIN OR POLYPEPTIDE BY POLYUBIQUITINATION” (PRAZER THERAPEUTICS INC., priority 2021, published 2024)

The compounds below were run against T1, p38 proteins (Mus musculus, UniProt P47811) (assay: Degradation of p38 in Raw 264.7 macrophages (Western blot densitometry)). Settings: 10 μM, 24 hours.
T1 construct: endogenous in cells; host or cells: RAW 264.7
Type: cell-based
Method: To confirm that the compounds (p38 degraders) of Preparation Examples I″′ to III″′ reduce the amount of phospho-p38 (p-p38) proteins, experiments were performed using Raw 264.7 macrophages. Since p38 MAPK alpha is activated through the process of phosphorylation of threonine 180 (Thr180) and tyrosine 182 (Tyr182) residues by MKK3, MKK6, and the like, which are upstream regulators, phosphorylation of these residues was generally detected using an antibody (3D7 rabbit monoclonal antibody from Cell Signaling, Inc.) that specifically recognizes phospho-p38 (p-p38) MAPK in which p38 MAPK alpha was activated.
Specifically, the RAW 264.7 cells were cultured in DMEM medium containing 10% fetal bovine serum (FBS), 1% penicillin, and streptomycin (100 U/mL), transferred to a 6-well plate, and after 24 hours, the p38 degraders were diluted in the DMEM culture medium and the cells were treated with 10 μM concentration thereof. After treatment, the cells were incubated in a CO2 incubator for 24 hours. Through protein immunoblotting (Western Blot), the degrading capacity of each compound against p38 and p-p38 proteins in cells was confirmed. After cell culture was completed according to the experimental conditions, the cells were collected and centrifuged at 1,800 rpm for 3 minutes. The cells in the precipitate were lysed with RIPA (25 mM Tris-HCl pH 7.6, 150 mM NaCl, 1% NP-40, 1% sodium deoxycholate, 0.1% SDS, 1× Protease Inhibitor Cocktail), 5× sample buffer was added, and then heated at 100° C. for 15 minutes. The prepared sample was electrophoresed with sodium dodecyl sulfate poly acrylamide gel electrophoresis (SDS-PAGE), and then the proteins in the gel were transferred to a PVDF membrane using Trans-Blot Turbo. The membrane was treated with a 5% bovine serum albumin (BSA) solution and blocked at room temperature for 2 hours, and then p-p38, p38, and R-actin antibodies were diluted in the 5% BSA solution to react with the membrane at 4° C. overnight. After washed with PBST (phosphate-based saline containing 0.5% Tween20) 5 times, horse radish peroxidase (HRP)-conjugated secondary antibodies were diluted in PBST to react at room temperature for 2 hours, and then washed again with a PBST solution 5 times. After enzyme-substrate reaction was carried out using a HRP substrate, a signal was measured with chemi-doc equipment, and the densitometry of bands corresponding to the p-p38 and p38 proteins detected in the Preparation Example Compounds was quantitatively analyzed. The case when the degrading capacity of each p38 degrader was reduced by less than 40% is indicated as +, the case when the degrading capacity was reduced by 40% to 70% (exclusive of 70) is indicated as ++, the case when the degrading capacity was reduced by 70% or more is indicated as +++ in Tables 24 to 26 below. As shown in the following Tables, it was confirmed that the compounds of Preparation Examples I″′ to III″′ according to the present invention have excellent degrading capacity.

T1 sequence (P47811 whole entry): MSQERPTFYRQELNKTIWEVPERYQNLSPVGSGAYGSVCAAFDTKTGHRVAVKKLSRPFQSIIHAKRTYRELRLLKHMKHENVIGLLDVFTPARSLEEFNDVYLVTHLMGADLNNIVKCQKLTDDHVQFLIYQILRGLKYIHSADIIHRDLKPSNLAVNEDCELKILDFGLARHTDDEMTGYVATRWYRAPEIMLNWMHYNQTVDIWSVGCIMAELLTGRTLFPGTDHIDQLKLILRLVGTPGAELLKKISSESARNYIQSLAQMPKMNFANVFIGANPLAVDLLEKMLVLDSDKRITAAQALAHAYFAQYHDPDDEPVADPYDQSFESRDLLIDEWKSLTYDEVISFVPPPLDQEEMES

Structure (SMILES) | p38 degrading capacity (%)
Cc1ccc(C(=O)NC2CC2)cc1-c1ccc(C(=O)c2ccc(OCCOC(=O)Nc3ccc(C#CCN)cc3)cc2)cc1.Cl [1-1″′, 2-(4-(5′-(cyclopropylcarbamoyl)-2′-methyl-[1,1′-biphenyl]-4-carbonyl)phenoxy)ethyl (4-(3-aminoprop-1-yn-1-yl)phenyl)carbamate hydrochloride] | +++ (the degrading capacity was reduced by 70% or more)
Cc1ccc(C(=O)NC2CC2)cc1-c1ccc(C(=O)c2ccc(OCCOC(=O)Nc3ccc(C#CC(N)CO)cc3)cc2)cc1.Cl (stereo not shown) [3-49″′, 2-(4-(5′-(cyclopropylcarbamoyl)-2′-methyl-[1,1′-biphenyl]-4-carbonyl)phenoxy)ethyl (4-(3-amino-4-hydroxybut-1-yn-1-yl)phenyl)carbamate hydrochloride] | +++ (the degrading capacity was reduced by 70% or more)
Cc1ccc(C(=O)NC2CC2)cc1-c1ccc(C(=O)c2ccc(OCCOC(=O)NCCCNC(=O)c3ccc(C#CCN)o3)cc2)cc1 [4-166″′, 2-(4-(5′-(cyclopropylcarbamoyl)-2′-methyl-[1,1′-biphenyl]-4-carbonyl)phenoxy)ethyl (3-(5-(3-aminoprop-1-yn-1-yl)furan-2-carboxamido)propyl)carbamate trifluoroacetic acid] | +++ (the degrading capacity was reduced by 70% or more)
COC(=O)c1ccc(NC(=O)CCCC(=O)OCCOc2ccc(C(=O)c3ccc(-c4cc(C(=O)NC5CC5)ccc4C)cc3)cc2)cc1C#CCN.Cl [5-106″′, methyl 2-(3-aminoprop-1-yn-1-yl)-4-(5-(2-(4-(5′-(cyclopropylcarbamoyl)-2′-methyl-[1,1′-biphenyl]-4-carbonyl)phenoxy)ethoxy)-5-oxopentanamido)benzoate hydrochloride] | +++ (the degrading capacity was reduced by 70% or more)
COC(=O)c1ccc(C#CCNC(=O)OCCOc2ccc(C(=O)c3ccc(-c4cc(C(=O)NC5CC5)ccc4C)cc3)cc2)cc1C#CCN.Cl [5-116″′, methyl 2-(3-aminoprop-1-yn-1-yl)-4-(3-(((2-(4-(5′-(cyclopropylcarbamoyl)-2′-methyl-[1,1′-biphenyl]-4-carbonyl)phenoxy)ethoxy)carbonyl)amino)prop-1-yn-1-yl)benzoate hydrochloride] | +++ (the degrading capacity was reduced by 70% or more)
COC(=O)c1ccc(C(=O)N2CCN(C(=O)OCCOc3ccc(C(=O)c4ccc(-c5cc(C(=O)NC6CC6)ccc5C)cc4)cc3)CC2)cc1C#CCN [5-140″′, 2-(4-(5′-(cyclopropylcarbamoyl)-2′-methyl-[1,1′-biphenyl]-4-carbonyl)phenoxy)ethyl 4-(3-(3-aminoprop-1-yn-1-yl)-4-(methoxycarbonyl)benzoyl)piperazine-1-carboxylate trifluoroacetic acid] | +++ (the degrading capacity was reduced by 70% or more)

What follows are compounds tested against T2, ubiquitin (Homo sapiens, UniProt P0CG47) (assay: Direct binding to ubiquitin: in vitro ubiquitination and intact protein analysis (UPLC-Q/TOF or MALDI-TOF)). Settings: 10 μM, ubiquitin 1 mg/mL, E1, E2, E3 (ITCH/AIP4), ATP, 37° C., 4 hours.
T2 construct: mixed with 1 mg/mL of ubiquitin
Method: To confirm that the compounds represented by Formulae V to VIII of the present invention directly bind to ubiquitin, in vitro ubiquitination assay was performed, and then the compounds of Preparation Examples I′ to IV″′ (BRD4 degraders) bound to ubiquitin, a BRD4 inhibitor, and ubiquitin were detected using intact protein analysis. The intact protein analysis is a method capable of measuring a compound bound to a protein by mass spectrometry without protease pretreatment. Experiments were performed using ITCH/AIP4 proteins (manufacturer: R&D System), which are E3 ligases, in order to bind ubiquitin and BRD4 degraders in vitro.
Specifically, 10 μM of each degrader was mixed with 1 mg/mL of ubiquitin, 10× buffer, 5 nM of E1, 100 nM of E2, 14 nM of E3, and 1 mM of ATP to react in a 37° C. incubator for 4 hours. To the reacted samples, acetonitrile and formic acid were added for UPLC-Q/TOF or MALDI-TOF analysis, resulting in the final concentrations of 50% acetonitrile and 0.1% formic acid, respectively. For UPLC-Q/TOF, a Micromass Q-TOF micro Synapt High-definition mass spectrometer equipped with ESI was used to perform the mass spectrometry. […] The experimental results were analyzed using TOF/TOF™ Series Explorer™ software version 4.0.

Structure (SMILES) | molecular weight peak of ubiquitin bound to the compound (intact protein analysis, FIGS. 3A-3J)
Cc1sc2c(c1C)C(c1ccc(Cl)cc1)=N[C@@H](CC(=O)OC(C)(C)C)c1nnc(C)n1-2 [JQ1] | not detected
